The results in this text go back to paper PMC10335629 (Journal of the American Chemical Society, 2023).

Read-outs that look alike come from different tables or passages of the source. No end group written: not given here.

A word on the IC50: it is the concentration that inhibits the measured activity by half. The low end stands for inhibition by little substance, the high end for a need for much substance. One may read the EC50 as the midpoint of the concentration-response curve. Low values mean a more potent agent, high ones a less potent agent.

Test [1] has as its target nLuc-GLP-2R (UniProt O95838).
In test [2] the target is nLuc-GLP-2R (UniProt O95838). Description: FRET or BRET.
The target of another test is T1, GLP-2R (Homo sapiens, UniProt O95838).
T1 sequence (O95838 1-553): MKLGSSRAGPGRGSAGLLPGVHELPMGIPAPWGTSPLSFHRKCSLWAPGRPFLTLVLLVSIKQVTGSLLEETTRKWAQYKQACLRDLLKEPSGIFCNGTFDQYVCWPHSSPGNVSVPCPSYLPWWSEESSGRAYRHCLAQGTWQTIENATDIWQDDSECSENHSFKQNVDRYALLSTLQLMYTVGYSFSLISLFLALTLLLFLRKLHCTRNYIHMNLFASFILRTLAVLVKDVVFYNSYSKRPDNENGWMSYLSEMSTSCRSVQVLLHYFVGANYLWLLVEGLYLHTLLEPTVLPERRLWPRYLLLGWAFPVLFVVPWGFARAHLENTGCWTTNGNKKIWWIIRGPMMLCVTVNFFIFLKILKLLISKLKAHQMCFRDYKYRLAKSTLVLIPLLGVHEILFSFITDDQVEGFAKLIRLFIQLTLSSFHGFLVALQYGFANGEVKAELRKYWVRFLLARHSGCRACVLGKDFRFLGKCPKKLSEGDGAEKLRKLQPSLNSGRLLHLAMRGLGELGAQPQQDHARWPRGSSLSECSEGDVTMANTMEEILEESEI
Description: GLP-2R activation: cAMP production, GloSensor HEK293 cells.

Another test addresses GLP-1R (Homo sapiens, UniProt P43220). Briefly: GLP-1R activation: cAMP production, GloSensor HEK293 cells. The test is classed as cell-based. (In general: Changes in cAMP serve as a functional read-out for many G protein-coupled receptors.)
Test [3] addresses T2, nLuc-GLP-2R (Homo sapiens, UniProt O95838).
T2 sequence (O95838 1-553): T1 sequence (O95838 1-553)
Briefly: nLuc-GLP-2R competition binding.

In a further test the target is nLuc-GLP-1R (Homo sapiens, UniProt P43220). Description: nLuc-GLP-1R competition binding.
Sequence of nLuc-GLP-1R (P43220 24-463): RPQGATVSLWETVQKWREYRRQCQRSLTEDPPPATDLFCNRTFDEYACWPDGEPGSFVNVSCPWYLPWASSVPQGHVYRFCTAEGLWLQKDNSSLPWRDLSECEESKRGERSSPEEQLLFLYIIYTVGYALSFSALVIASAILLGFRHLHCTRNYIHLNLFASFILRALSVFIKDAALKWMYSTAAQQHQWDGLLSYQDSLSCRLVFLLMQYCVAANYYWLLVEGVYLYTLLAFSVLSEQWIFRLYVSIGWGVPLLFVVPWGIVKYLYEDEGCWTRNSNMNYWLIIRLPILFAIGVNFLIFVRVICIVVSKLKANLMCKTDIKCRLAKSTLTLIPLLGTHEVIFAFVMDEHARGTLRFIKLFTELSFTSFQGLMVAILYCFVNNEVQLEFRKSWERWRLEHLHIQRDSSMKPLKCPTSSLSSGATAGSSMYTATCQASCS
For test [4], the target named is nLuc-GLP-2R (UniProt O95838). This is another data set of the same source.

Sequence of GLP-1R (P43220 24-463): as above

Regarding GLP-2 (peptide), in the test with nLuc-GLP-2R [1], the GLP-2R cAMP Production, % Max (normalized to GLP-2) worked out at 99% and the GLP-2R cAMP Production, EC50 (native GLP-2R) is 0.086 nM. The same substance returned a half-maximal inhibitory concentration (IC50) in the test with nLuc-GLP-2R [2] of 25 nM.
As for “GLP-2-NH2: C-terminal amide analogue of the hormone GLP-2”, the “effect of altering the C-terminus to a primary amide on GLP-2R activation” value with GLP-2R (natural sequence, compared with GLP-2, Figure S1) is “no effect on GLP-2R activation”.
For the substance “HGEGTFSSELATILDALAARDFIAWLIATKITDKKKKKK-NH2 (C-terminus assumed) [GLE, glepaglutide]”, on GLP-1R (maximal response normalized relative to GLE, ≥4 independent experiments, ± S.E.M., NR = No Response), the “GLP-1R cAMP Production % Max” value stood at 95 ± 2%. Further, the Emax on GLP-2R (HEK293, read-out: GLP-2R cAMP Production % Max) is 98 ± 1%. Moreover, the “lower affinity for nLuc-GLP-2R relative to GLP-2” value at nLuc-GLP-2R [3] (competition BRET, Figure S2) is given as ~ 10 fold.
Turning to “HGEGTFSSELATILDALAARDFIAWLIATKITDKKKKKK-NH2 [GLE, glepaglutide]”, the values for the EC50 on GLP-1R and on GLP-2R were 5.1 nM and 0.44 nM, respectively. The IC50 at nLuc-GLP-1R is 290 nM; on nLuc-GLP-2R [3], 170 nM.
With glepaglutide (GLE) (peptide), the GLP-2R cAMP Production, EC50 (native GLP-2R) with nLuc-GLP-2R [4] stood at 0.44 nM.
